PubChem BioAssay AID248 (DTP/NCI, 2004)
Several values for one entry are separate records, joined by “and”; a condition that tells them apart may be missing. Equal entries are not always repeated. Toxic doses and inconclusive results are not listed.

System: L1210 leukemia ip in BDF1 mice, survival T/C
Assay: NCI In Vivo Anticancer Drug Screen. Data for tumor model L1210 Leukemia (intraperitoneal) in B6D2F1 (BDF1) mice
Conditions: endpoint: mean survival time, higher = longer survival
How it was run: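 Survival endpoint. Drug-treated group vs vehicle group, expressed as T divided by C. Tumor passaged by transplantation.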

[1] = dose: 100.0 mg/kg/injection, schedule: Q01DX009 (ip), vehicle: saline
[2] = dose: 100.0 mg/kg/injection, schedule: Q01DX009 (ip), vehicle: Klucel (hydroxypropylcellulose) (HPC)
[3] = dose: 200.0 mg/kg/injection, schedule: Q01DX009 (ip), vehicle: Klucel (hydroxypropylcellulose) (HPC)
[4] = dose: 400.0 mg/kg/injection, schedule: Q01DX009 (ip), vehicle: Klucel (hydroxypropylcellulose) (HPC)
[5] = dose: 100.0 mg/kg/injection, schedule: Q01DX001 (ip), vehicle: saline
[6] = dose: 200.0 mg/kg/injection, schedule: Q01DX001 (ip), vehicle: saline
[7] = dose: 400.0 mg/kg/injection, schedule: Q01DX001 (ip), vehicle: saline

Structure (SMILES): Cc1cc(NC(=O)Nc2ccc(C3=NCCCN3)cc2)ccc1NC(=O)Nc1ccc(C2=NCCCN2)cc1
- T/C (dose: 3.0 mg/kg/injection, schedule: Q01DX Z (ip), vehicle: water): 113 % of control
- T/C (dose: 4.5 mg/kg/injection, schedule: Q01DX Z (ip), vehicle: water): 119 % of control
- T/C (dose: 6.0 mg/kg/injection, schedule: Q01DX Z (ip), vehicle: water): 109 % of control
- T/C (dose: 7.5 mg/kg/injection, schedule: Q01DX Z (ip), vehicle: water): 167 % of control
- T/C (dose: 10.0 mg/kg/injection, schedule: Q01DX Z (ip), vehicle: water): 220 % of control
- T/C (dose: 25.0 mg/kg/injection, schedule: Q01DX Z (oral), vehicle: water): 109 % of control
- T/C (dose: 50.0 mg/kg/injection, schedule: Q01DX Z (oral), vehicle: water): 103 % of control
- T/C [1]: 163 % of control
- T/C (dose: 100.0 mg/kg/injection, schedule: Q01DX Z (oral), vehicle: water): 105 % of control
- T/C (dose: 200.0 mg/kg/injection, schedule: Q01DX Z (oral), vehicle: water): 109 % of control

Structure (SMILES): CCCCC(C)O[Si](C)C1(C)CCCCC1 (stereo not drawn)
- T/C (dose: 100.0 mg/kg/injection, schedule: Q04DX003 (ip), vehicle: saline with Tween-80): 94 % of control
- T/C (dose: 200.0 mg/kg/injection, schedule: Q04DX003 (ip), vehicle: saline with Tween-80): 95 % of control
- T/C (dose: 400.0 mg/kg/injection, schedule: Q04DX003 (ip), vehicle: saline with Tween-80): 106 % of control

Structure (SMILES): COc1ccc(/C=N/NC(=S)Nc2ccccc2)cc1OC
- T/C [2]: 94 % of control and 100 % of control
- T/C [3]: 89 % of control
- T/C [4]: 96 % of control and 86 % of control

Structure (SMILES): CCN=C(N)C(N)=NCC
- T/C [1]: 94 % of control
- T/C (dose: 100.0 mg/kg/injection, schedule: Q04DX003 (ip), vehicle: saline): 103 % of control
- T/C (dose: 200.0 mg/kg/injection, schedule: Q01DX009 (ip), vehicle: saline): 94 % of control
- T/C (dose: 200.0 mg/kg/injection, schedule: Q04DX003 (ip), vehicle: saline): 100 % of control
- T/C (dose: 400.0 mg/kg/injection, schedule: Q01DX009 (ip), vehicle: saline): 89 % of control
- T/C (dose: 400.0 mg/kg/injection, schedule: Q04DX003 (ip), vehicle: saline): 97 % of control

Structure (SMILES): CNC(=O)c1cc(NC(=O)Nc2cccc(C3=NCCN3)c2)cc(NC(=O)Nc2cccc(C3=NCCN3)c2)c1
- T/C (dose: 15.0 mg/kg/injection, schedule: Q01DX Z (ip), vehicle: saline): 114 % of control
- T/C (dose: 30.0 mg/kg/injection, schedule: Q01DX Z (oral), vehicle: saline): 103 % of control
- T/C (dose: 60.0 mg/kg/injection, schedule: Q01DX Z (ip), vehicle: saline): 120 % of control
- T/C (dose: 60.0 mg/kg/injection, schedule: Q01DX Z (oral), vehicle: saline): 119 % of control
- T/C (dose: 120.0 mg/kg/injection, schedule: Q01DX Z (oral), vehicle: saline): 101 % of control
- T/C (dose: 240.0 mg/kg/injection, schedule: Q01DX Z (oral), vehicle: saline): 95 % of control

Structure (SMILES): CCn1c(C)nc2cc(N=Cc3ccc(N(CCCl)CCCl)cc3)ccc21
- T/C (dose: 100.0 mg/kg/injection, schedule: Q04DX002 (ip), vehicle: Klucel (hydroxypropylcellulose) (HPC)): 113 % of control
- T/C (dose: 200.0 mg/kg/injection, schedule: Q04DX002 (ip), vehicle: Klucel (hydroxypropylcellulose) (HPC)): 106 % of control
- T/C (dose: 400.0 mg/kg/injection, schedule: Q04DX002 (ip), vehicle: Klucel (hydroxypropylcellulose) (HPC)): 106 % of control

Structure (SMILES): Cn1c(/N=C/c2ccc([N+](=O)[O-])cc2)c(N)c(=O)n(C)c1=O
- T/C (dose: 50.0 mg/kg/injection, schedule: Q01DX001 (ip), vehicle: carboxymethylcellulose (CMC)): 90 % of control
- T/C (dose: 100.0 mg/kg/injection, schedule: Q01DX001 (ip), vehicle: carboxymethylcellulose (CMC)): 93 % of control
- T/C (dose: 200.0 mg/kg/injection, schedule: Q01DX001 (ip), vehicle: carboxymethylcellulose (CMC)): 88 % of control
- T/C (dose: 400.0 mg/kg/injection, schedule: Q01DX001 (ip), vehicle: carboxymethylcellulose (CMC)): 88 % of control

Structure (SMILES): CCO[Si](C)(C)CCl
- T/C [5]: 98 % of control
- T/C [6]: 101 % of control
- T/C [7]: 106 % of control

Structure (SMILES): CC(=O)OCCOc1cccc(C)c1
- T/C (dose: 100.0 mg/kg/injection, schedule: Q04DX002 (ip), vehicle: saline): 114 % of control
- T/C (dose: 200.0 mg/kg/injection, schedule: Q04DX002 (ip), vehicle: saline): 96 % of control
- T/C (dose: 400.0 mg/kg/injection, schedule: Q04DX002 (ip), vehicle: saline): 107 % of control

Structure (SMILES): CC(=O)OC1COC(n2cnc3c(=O)[nH]cnc32)C(OC(C)=O)C1OC(C)=O (stereo not drawn)
- T/C (dose: 50.0 mg/kg/injection, schedule: Q01DX001 (ip), vehicle: saline): 97 % of control
- T/C [5]: 97 % of control and 115 % of control and 101 % of control
- T/C [6]: 86 % of control and 109 % of control and 103 % of control
- T/C [7]: 95 % of control

Structure (SMILES): COc1ccc(NC(=O)Oc2cc(C)c(Cl)cc2C(C)C)c(OC)c1
- T/C [2]: 101 % of control
- T/C [3]: 101 % of control
- T/C [4]: 92 % of control
